Results published in patent publication EP1044978A2, “1-N-alkyl-5'-[(N'-(un)substituted)amido]spiroindolinonaphthoxazines, their preparation, compositions and (co)polymer matrices containing them” (Corning S.A., priority 1999, dated 2000).

Assay: Photochromic properties of lens samples (2 mm, compound in matrix I or II) exposed to UV radiation from a xenon lamp
Format: physicochemical
Conditions: lens sample
Excerpt: The matrix used in accordance with the present invention may be one of two types :
A homopolymer of the monomer DIACRYL 121 (D121 : tetraethoxylated Bisphenol A dimethylmethacrylate), marketed by Akzo Nobel; or
A copolymer comprised of a 50/50 mixture by weight of D121 (as above) and polyethylene glycol dimethacrylate (Molecular weight = 400) (PEGDMA 400).
10^-5 moles of at least one compound of the invention, together with 0.2% by weight of AMBN (2,2'-azobis(2-methylbutyronitrile)) provided by Akzo, are added to 10 g of formulations able to generate cross-linked matrix I or II. The formulations thus prepared are then poured into a lens mould of 2 mm thickness and then cured by heating at 60°C for 6 hours, followed by heating at 80°C for 2 hours to give a lens sample.
The photochromic properties of the lens samples thus obtained were then evaluated as follows :
Said lens sample, containing said photochromic compounds in its mass, is exposed to a UV radiation (source: xenon lamp).
Bleu D: 1,3-dihydro-1,3,3,5,6-pentamethylspiro[2H-indole-2'3'-[3H]-naphth-[2,1-b][1,4]oxazine] supplied by Great Lakes. T0 : the transmission before exposure to UV TD15 : the transmission after 15 minutes' exposure to UV OID : optical induced density (D∞-D0) [D∞ is the density after exposure, D0 the density before exposure] t1/2 : time of half-darkness which characterises the kinetics of the return to the initial state when at the equilibrium the exposure is cut off. λmax : the maximum absorption in the visible spectrum after UV irradiation.

[1] = Matrix I (homopolymer of DIACRYL 121)
[2] = Matrix II (50/50 D121 / PEGDMA 400 copolymer)

| Compound | OID (optical induced density, D∞-D0) [1] | T0 (the transmission before exposure to UV) [1] | TD15 (the transmission after 15 minutes' exposure to UV) [1] | λmax (the maximum absorption in the visible spectrum after UV irradiation) [1] | OID (optical induced density, D∞-D0) [2] | T0 (the transmission before exposure to UV) [2] | TD15 (the transmission after 15 minutes' exposure to UV) [2] | λmax (the maximum absorption in the visible spectrum after UV irradiation) [2] |
| --- | --- | --- | --- | --- | --- | --- | --- | --- |
| CN1c2ccccc2C(C)(C)C12C=Nc1c(c(C(=O)N3CCc4ccccc43)cc3ccccc13)O2 (stereo not shown) [Example 4, 1,3-dihydro-1,3,3-trimethyl-5'-indolinocarbonylspiro[2H-indole-2,3'-[3H]-naphtho[2,1-b][1,4]oxazine]] | 0.339 | 86.9% | 39.8% | 622 nm | 0.553 | 85.4% | 23.9% | 622 nm |
| 1,3-dihydro-1,3,3,4(5),5(6)-pentamethyl-5'-piperidinocarbonyl-spiro[2H]-indole-2,3'-[3H]naphth[2,1-b][1,4]oxazine [Example 5] | 0.905 | 77.6% | 9.7% | 626 nm | 1.067 | 80.7% | 6.9% | 622 nm |
| CN1c2ccccc2C(C)(C)C12C=Nc1c(c(C(=O)N3CCCCC3)cc3ccccc13)O2 (stereo not shown) [Example 2, 1,3-dihydro-1,3,3-trimethyl-5'-piperidinocarbonylspiro[2H-indole-2,3'-[3H]-naphtho[2,1-b][1,4]oxazine]] | 0.152 | 89.0% | 62.6% | 618 nm |  |  |  |  |
| CC(C)CN1c2ccccc2C(C)(C)C12C=Nc1c(c(C(=O)N3CCCCC3)cc3ccccc13)O2 (stereo not shown) [Example 7, 1,3-dihydro-1-(2'-methylpropyl)-3,3-dimethyl-5'-piperidinocarbonylspiro[2H-indole-2,3'-[3H]-naphtho[2,1-b] [1,4]oxazine]] |  |  |  |  | 0.437 | 86.9% | 31.8% | 622 nm |
| CN1c2ccccc2C(C)(C)C12C=Nc1c(c(C(=O)N3CCOCC3)cc3ccccc13)O2 (stereo not shown) [Example 1, 1,3-dihydro-1,3,3-trimethyl-5'-morpholinocarbonylspiro[2H-indole-2,3'-[3H]-naphtho[2,1-b][1,4]oxazine]] |  |  |  |  | 0.324 | 88.9% | 42.2% | 620 nm |
| COc1ccc2c(c1)C(C)(C)C1(C=Nc3c(c(C(=O)N4CCCCC4)cc4ccccc34)O1)N2C (stereo not shown) [Example 6, 1,3-dihydro-5-methoxy-1,3,3-trimethyl-5'-piperidinocarbonylspiro[2H]-indole-2,3'-[3H]naphth[2,1-b][1,4]oxazine] |  |  |  |  | 0.858 | 81.9% | 11.3% | 634 nm |
| CN1c2ccccc2C(C)(C)C12C=Nc1c(ccc3ccccc13)O2 (stereo not shown) [Control I, 1,3-dihydro-1,3,3-trimethylspiro[2H-indole-2,3'-[3H]-naphth[2,1-b][1,4]oxazine], reference compound] | 0.142 | 90.9% | 65.6% | 607 nm | 0.140 | 90.5% | 65.5% | 610 nm |
| Cc1cc2c(cc1C)C(C)(C)C1(C=Nc3c(ccc4ccccc34)O1)N2C (stereo not shown) [Control II, 1,3-dihydro-1,3,3,5,6-pentamethylspiro[2H-indole-2'3'-[3H]-naphth-[2,1-b][1,4]oxazine], reference compound] | 0.280 | 90.5% | 47.5% | 616 nm | 0.357 | 90.5% | 39.8% | 616 nm |
| Cc1ccc(NC(=O)c2cc3ccccc3c3c2OC2(C=N3)N(C)c3ccccc3C2(C)C)cc1 (stereo not shown) [Example 3, 1,3-dihydro-1,3,3-trimethyl-5'-p-(tolylcarbamoyl)spiro[2H-indole-2,3'-[3H]-naphtho[2,1-b][1,4]oxazine]] | 0.707 | 75.5% | 14.8% | 634 nm |  |  |  |  |
